{"source": "patent US20190119282A1", "about": "“IMIDAZOPYRIDAZINES USEFUL AS INHIBITORS OF THE PAR-2 SIGNALING PATHWAY” (Vertex Pharmaceuticals Incorporated, priority 2013, published 2019)", "key": {"[1]": {"test_system": "carrageenan-induced paw edema", "test": "Rat carrageenan-induced paw edema model", "format": "in vivo, Sprague Dawley rats", "details": "for % inhibition of carrageenan induced paw edema: given before carrageenan challenge; for % inhibition of an established carrageenan induced rat paw edema: given 2 hours post carrageenan challenge", "outline": "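Rats received intraplantar 1% carrageenan (100 ul) under isoflurane. Test compound in 0.5% MC/0.1% SDS was given systemically at 5 mL/kg either 1-3 h before or 2 h after the challenge. Paw swelling was measured by plethysmometer at 2-6 h and expressed as mean % effect.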"}, "[2]": {"biological_target": "T1, PAR2 (HT-29 cells, trypsin activation) (Homo sapiens, UniProt P55085)", "T1 construct": "host or cells: HT-29 cells", "T1 sequence (P55085 26-397)": "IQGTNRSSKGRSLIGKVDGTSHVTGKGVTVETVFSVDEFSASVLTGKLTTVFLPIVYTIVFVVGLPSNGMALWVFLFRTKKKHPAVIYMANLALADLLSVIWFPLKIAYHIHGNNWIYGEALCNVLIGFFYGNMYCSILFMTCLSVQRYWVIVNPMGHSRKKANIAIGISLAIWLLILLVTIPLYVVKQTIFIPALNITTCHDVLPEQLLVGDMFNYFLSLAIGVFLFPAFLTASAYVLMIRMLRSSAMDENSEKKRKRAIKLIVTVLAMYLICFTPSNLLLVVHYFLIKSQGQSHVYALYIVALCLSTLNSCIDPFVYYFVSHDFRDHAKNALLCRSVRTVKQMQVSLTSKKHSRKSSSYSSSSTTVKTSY", "test": "Ca FLIPR TETRA assay, ANTAGONIST mode, stimulation with 3.1 U/mL trypsin", "format": "cell-based", "details": "HT-29 cells, antagonist mode, stimulation with 3.1 U/mL trypsin", "outline": "(§1)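 Inhibition of activator-evoked Ca2+ flux was recorded on FLIPR Tetra in HT-29 cells after 30 min compound exposure at r.t. A prior read checked whether compounds alone triggered Ca2+ release.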"}, "[3]": {"test_system": "Thrombin-stimulated Ca2+ response in HT-29 cells", "test": "Ca FLIPR TETRA assay, ANTAGONIST mode, stimulation with 1 U/mL Thrombin", "format": "cell-based, human", "details": "Homo sapiens; HT-29 cells, antagonist mode, stimulation with 1 U/mL Thrombin", "outline": "as §1"}}, "note": "Marks after values point to notes of the source that are not given here.", "data": [{"smiles": "Cc1nc(C(=O)N2CCN(C(=O)c3cn4nc(-c5ccc(F)cc5)cc(C(C)(C)C)c4n3)C(C)(C)C2)n[nH]1", "note": "[Compound I-343, (8-(tert-butyl)-6-(4-fluorophenyl)imidazo[1,2-b]pyridazin-2-yl)(2,2-dimethyl-4-(5-methyl-1H-1,2,4-triazole-3-carbonyl)piperazin-1-yl)methanone]", "values": [{"measurement": "% inhibition of carrageenan induced paw edema", "setting": "[1]; dose 0.3 mg/kg", "value": "19* %"}, {"measurement": "% inhibition of an established carrageenan induced rat paw edema", "setting": "[1]; dose 3 mg/kg", "value": "32** %"}, {"measurement": "% inhibition of carrageenan induced paw edema", "setting": "[1]; dose 3 mg/kg", "value": "28* %"}, {"measurement": "% inhibition of an established carrageenan induced rat paw edema", "setting": "[1]; dose 10 mg/kg", "value": "49** %"}, {"measurement": "% inhibition of carrageenan induced paw edema", "setting": "[1]; dose 10 mg/kg", "value": "34* %"}, {"measurement": "% inhibition of an established carrageenan induced rat paw edema", "setting": "[1]; dose 30 mg/kg", "value": "58** %"}, {"measurement": "% inhibition of carrageenan induced paw edema", "setting": "[1]; dose 30 mg/kg", "value": "50*** %"}, {"measurement": "% inhibition of an established carrageenan induced rat paw edema", "setting": "[1]; dose 60 mg/kg", "value": "70*** %"}, {"measurement": "IC50", "setting": "[2]", "value": 0.0008, "unit": "µM"}, {"measurement": "IC50", "setting": "[3]", "value": 1.11, "unit": "µM"}]}]}
